According to patent US12023333B2, “Phenyl-sulfamoyl.benzoyc acids as ERAP1 modulators” (GREY WOLF THERAPEUTICS LIMITED, priority 2019, dated 2024):

Target: T1, Purified ERAP1(37-941)-10His (ERAP1) (Homo sapiens, UniProt Q9NZ08)
T1 construct: Purified ERAP1(37-941)-10His (ERAP1); 10His (C)
Assay: ERAP1 mediated hydrolysis of an amide substrate measured in a biochemical system (10-mer decapeptide substrate)
Conditions: 10-mer substrate, 23° C. for 1 h, excitation 279 nm and emission 355 nm; read-out: IC50 vs Decapeptide WRVYEKC(Dnp)ALK-acid (where Dnp is Dinitrophenyl maleimide) (10-mer)
Summary of the method: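 ERAP1(37-941)-10His preincubated with compound in 25 mM Bis-tris propane, 0.05% HPMC, pH 7.75, then reacted 1 h at 23 °C with 10-mer WRVYEKC(Dnp)ALK (100 μM solution added in equal volume). Fluorescence read at ex 279/em 355 nm; IC50 from 4-parameter fit.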

T1 sequence (Q9NZ08 37-941): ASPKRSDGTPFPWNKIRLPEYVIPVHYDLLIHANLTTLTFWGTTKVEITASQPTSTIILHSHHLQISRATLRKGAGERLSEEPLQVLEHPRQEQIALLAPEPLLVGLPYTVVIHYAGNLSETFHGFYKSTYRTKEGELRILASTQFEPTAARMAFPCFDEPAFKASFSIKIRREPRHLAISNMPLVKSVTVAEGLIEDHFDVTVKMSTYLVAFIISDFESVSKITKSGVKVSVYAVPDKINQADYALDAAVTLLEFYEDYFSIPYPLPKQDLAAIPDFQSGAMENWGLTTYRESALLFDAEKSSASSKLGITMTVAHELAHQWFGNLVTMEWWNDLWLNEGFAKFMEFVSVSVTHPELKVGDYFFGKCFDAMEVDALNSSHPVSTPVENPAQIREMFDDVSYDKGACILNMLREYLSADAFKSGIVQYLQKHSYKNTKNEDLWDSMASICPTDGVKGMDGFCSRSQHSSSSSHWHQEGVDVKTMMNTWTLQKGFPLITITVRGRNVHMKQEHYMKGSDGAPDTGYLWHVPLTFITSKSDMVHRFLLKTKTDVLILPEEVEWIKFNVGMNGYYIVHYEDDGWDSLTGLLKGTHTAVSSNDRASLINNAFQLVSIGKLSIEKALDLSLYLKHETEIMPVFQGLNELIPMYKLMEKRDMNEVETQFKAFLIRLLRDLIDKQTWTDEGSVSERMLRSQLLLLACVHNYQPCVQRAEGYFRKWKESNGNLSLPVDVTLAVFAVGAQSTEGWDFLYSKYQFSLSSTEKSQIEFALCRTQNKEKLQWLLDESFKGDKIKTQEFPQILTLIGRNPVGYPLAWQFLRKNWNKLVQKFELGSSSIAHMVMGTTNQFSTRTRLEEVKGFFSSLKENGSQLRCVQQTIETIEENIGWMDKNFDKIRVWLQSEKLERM

SMILES | IC50
O=C(O)c1ccc(C2CC2)c(S(=O)(=O)Nc2cc(-c3ccns3)ccc2-c2ccccn2)c1 [Example 139, 4-cyclopropyl-3-(N-(5-(isothiazol-5-yl)-2-(pyridin-2-yl)phenyl)sulfamoyl)benzoic acid] | < 0.5 µM
Cc1ccc(-c2ccc(-c3cnsc3C)cc2NS(=O)(=O)c2cc(C(=O)O)ccc2C2CC2)s1 [Example 140, 4-cyclopropyl-3-(N-(5-(5-methylisothiazol-4-yl)-2-(5-methylthiophen-2-yl)phenyl)sulfamoyl)benzoic acid] | < 0.5 µM
O=C(O)c1ccc(C2CC2)c(S(=O)(=O)Nc2cc(-c3ccns3)ccc2-c2ccc(Cl)s2)c1 [Example 141, 3-(N-(2-(5-chlorothiophen-2-yl)-5-(isothiazol-5-yl)phenyl)sulfamoyl)-4-cyclopropylbenzoic acid] | < 0.5 µM
O=C(O)c1ccc(C2CC2)c(S(=O)(=O)Nc2cc(-c3ccns3)ccc2-n2cccc2)c1 [Example 143, 4-cyclopropyl-3-(N-(5-(isothiazol-5-yl)-2-(pyrrol-1-yl)phenyl)sulfamoyl)benzoic acid] | < 0.5 µM
Cc1sncc1-c1ccc(-c2ccccn2)c(NS(=O)(=O)c2cc(C(=O)O)ccc2C2CC2)c1 [Example 144, 4-cyclopropyl-3-(N-(5-(5-methylisothiazol-4-yl)-2-(pyridin-2-yl)phenyl)sulfamoyl)benzoic acid] | < 0.5 µM
O=C(O)c1ccc(C2CC2)c(S(=O)(=O)Nc2cc(-c3cn[nH]c3)ccc2-c2ccccn2)c1 [Example 145] | < 0.5 µM
O=C(O)c1ccc(C2CC2)c(S(=O)(=O)Nc2cc(-c3ccns3)ccc2-c2cccs2)c1 [Example 146, 4-cyclopropyl-3-(N-(5-(isothiazol-5-yl)-2-(thiophen-2-yl)phenyl)sulfamoyl)benzoic acid] | < 0.5 µM
Cc1sncc1-c1ccc(-c2ccc(Cl)s2)c(NS(=O)(=O)c2cc(C(=O)O)ccc2C2CC2)c1 [Example 149, 3-(N-(2-(5-chlorothiophen-2-yl)-5-(5-methylisothiazol-4-yl)phenyl)sulfamoyl)-4-cyclopropylbenzoic acid] | < 0.5 µM
Cc1sncc1-c1ccc(-n2cccc2)c(NS(=O)(=O)c2cc(C(=O)O)ccc2C2CC2)c1 [Example 150, 4-cyclopropyl-3-(N-(5-(5-methylisothiazol-4-yl)-2-(pyrrol-1-yl)phenyl)sulfamoyl)benzoic acid] | < 0.5 µM
O=C(O)c1ccc(C2CC2)c(S(=O)(=O)Nc2cc(C(F)(F)F)ccc2-c2ccsn2)c1 [Example 151, 4-cyclopropyl-3-(N-(2-(isothiazol-3-yl)-5-(trifluoromethyl)phenyl)sulfamoyl)benzoic acid] | < 0.5 µM
N#Cc1cc(NS(=O)(=O)c2cc(C(=O)O)ccc2C2CC2)c(-c2ccccn2)cc1F [Example 154, 3-(N-(5-cyano-4-fluoro-2-(pyridin-2-yl)phenyl)sulfamoyl)-4-cyclopropylbenzoic acid] | < 0.5 µM
O=C(O)c1ccc(C2CC2)c(S(=O)(=O)Nc2cc(C(F)(F)F)c(F)cc2-n2cccc2)c1 [Example 155, 4-cyclopropyl-3-(N-(4-fluoro-2-(pyrrol-1-yl)-5-(trifluoromethyl)phenyl)sulfamoyl)benzoic acid] | < 0.5 µM
O=C(O)c1ccc(C2CC2)c(S(=O)(=O)Nc2cc(C(F)(F)F)c(Cl)cc2-n2cccc2)c1 [Example 156, 3-(N-(4-chloro-2-(pyrrol-1-yl)-5-(trifluoromethyl)phenyl)sulfamoyl)-4-cyclopropylbenzoic acid] | < 0.5 µM
COc1ccc(C(=O)O)cc1S(=O)(=O)Nc1cc(C(F)(F)F)c(Cl)cc1-n1cccc1 [Example 158, 3-(N-(4-chloro-2-(pyrrol-1-yl)-5-(trifluoromethyl)phenyl)sulfamoyl)-4-methoxybenzoic acid] | < 0.5 µM
N#Cc1ccc(-c2cscn2)c(NS(=O)(=O)c2cc(C(=O)O)ccc2C2CC2)c1 [Example 159, 3-(N-(5-cyano-2-(thiazol-4-yl)phenyl)sulfamoyl)-4-cyclopropylbenzoic acid] | < 0.5 µM
Cc1oncc1-c1ccc(-c2ccc(F)s2)c(NS(=O)(=O)c2cc(C(=O)O)ccc2C2CC2)c1 [Example 160, 4-cyclopropyl-3-(N-(2-(5-fluorothiophen-2-yl)-5-(5-methylisoxazol-4-yl)phenyl)sulfamoyl)benzoic acid] | < 0.5 µM
COc1ccc(C(=O)O)cc1S(=O)(=O)Nc1cc(C(F)(F)F)c(F)cc1-n1cccc1 [Example 162, 3-(N-(4-fluoro-2-(pyrrol-1-yl)-5-(trifluoromethyl)phenyl)sulfamoyl)-4-methoxybenzoic acid] | < 0.5 µM
Cc1oncc1-c1ccc(-c2ccc(Cl)s2)c(NS(=O)(=O)c2cc(C(=O)O)ccc2C2CC2)c1 [Example 164, 3-(N-(2-(5-chlorothiophen-2-yl)-5-(5-methylisoxazol-4-yl)phenyl)sulfamoyl)-4-cyclopropylbenzoic acid] | < 0.5 µM
N#Cc1ccc(-c2cccnn2)c(NS(=O)(=O)c2cc(C(=O)O)ccc2C2CC2)c1 [Example 165, 3-(N-(5-cyano-2-(pyridazin-3-yl)phenyl)sulfamoyl)-4-cyclopropylbenzoic acid] | < 0.5 µM
N#Cc1cc(NS(=O)(=O)c2cc(C(=O)O)ccc2C2CC2)c(-c2ccc(Cl)s2)cc1F [Example 166, 3-(N-(2-(5-chlorothiophen-2-yl)-5-cyano-4-fluorophenyl)sulfamoyl)-4-cyclopropylbenzoic acid] | < 0.5 µM
Cc1oncc1-c1ccc(-c2cccnc2)c(NS(=O)(=O)c2cc(C(=O)O)ccc2C2CC2)c1 [Example 167, 4-cyclopropyl-3-(N-(5-(5-methylisoxazol-4-yl)-2-(pyridin-3-yl)phenyl)sulfamoyl)benzoic acid] | < 0.5 µM
CS(=O)(=O)c1cc(NS(=O)(=O)c2cc(C(=O)O)ccc2C2CC2)c(-c2ccccn2)cc1Cl [Example 171, 3-(N-(4-chloro-5-(methylsulfonyl)-2-(pyridin-2-yl)phenyl)sulfamoyl)-4-cyclopropylbenzoic acid] | < 0.5 µM
CC(C)(C)c1ccc(C(=O)O)cc1S(=O)(=O)Nc1cc(C#N)ccc1-c1ccccn1 [Example 173, 4-(tert-butyl)-3-(N-(5-cyano-2-(pyridin-2-yl)phenyl)sulfamoyl) benzoic acid] | < 5 µM
N#Cc1ccc(-c2ccccn2)c(NS(=O)(=O)c2cc(C(=O)O)ccc2C#N)c1 [Example 175, 4-cyano-3-(N-(5-cyano-2-(pyridin-2-yl)phenyl)sulfamoyl)benzoic acid] | > 5 µM

Results, then the compound that gave them:

IC50 | SMILES
< 0.5 µM | Cc1sncc1-c1ccc(-c2cccnc2)c(NS(=O)(=O)c2cc(C(=O)O)ccc2C2CC2)c1 [Example 138, 4-cyclopropyl-3-(N-(5-(5-methylisothiazol-4-yl)-2-(pyridin-3-yl)phenyl)sulfamoyl)benzoic acid]
< 0.5 µM | Cc1sncc1-c1ccc(-c2ccc(F)s2)c(NS(=O)(=O)c2cc(C(=O)O)ccc2C2CC2)c1 [Example 142, 4-cyclopropyl-3-(N-(2-(5-fluorothiophen-2-yl)-5-(5-methylisothiazol-4-yl)phenyl)sulfamoyl)benzoic acid]
< 0.5 µM | O=C(O)c1ccc(C2CC2)c(S(=O)(=O)Nc2cc(-c3ccns3)ccc2-c2ccc(F)s2)c1 [Example 147, 4-cyclopropyl-3-(N-(2-(5-fluorothiophen-2-yl)-5-(isothiazol-5-yl)phenyl)sulfamoyl)benzoic acid]
< 0.5 µM | Cc1sncc1-c1ccc(-c2ccccc2)c(NS(=O)(=O)c2cc(C(=O)O)ccc2C2CC2)c1 [Example 148, 4-cyclopropyl-3-(N-(4-(5-methylisothiazol-4-yl)-[1,1′-biphenyl]-2-yl)sulfamoyl)benzoic acid]
< 0.5 µM | N#Cc1ccc(-c2ncccc2F)c(NS(=O)(=O)c2cc(C(=O)O)ccc2C2CC2)c1 [Example 152, 3-(N-(5-cyano-2-(3-fluoropyridin-2-yl)phenyl)sulfamoyl)-4-cyclopropylbenzoic acid]
< 0.5 µM | N#Cc1ccc(-c2cccc(F)n2)c(NS(=O)(=O)c2cc(C(=O)O)ccc2C2CC2)c1 [Example 153, 3-(N-(5-cyano-2-(6-fluoropyridin-2-yl)phenyl)sulfamoyl)-4-cyclopropylbenzoic acid]
< 0.5 µM | N#Cc1cc(NS(=O)(=O)c2cc(C(=O)O)ccc2C2CC2)c(-n2cccc2)cc1F [Example 157, 3-(N-(5-cyano-4-fluoro-2-(pyrrol-1-yl)phenyl)sulfamoyl)-4-cyclopropylbenzoic acid]
< 0.5 µM | N#Cc1cc(NS(=O)(=O)c2cc(C(=O)O)ccc2C2CC2)c(-n2cccc2)cc1Cl [Example 161, 3-(N-(4-chloro-5-cyano-2-(pyrrol-1-yl)phenyl)sulfamoyl)-4-cyclopropylbenzoic acid]
< 0.5 µM | N#Cc1ccc(-c2nccs2)c(NS(=O)(=O)c2cc(C(=O)O)ccc2C2CC2)c1 [Example 163, 3-(N-(5-cyano-2-(thiazol-2-yl)phenyl)sulfamoyl)-4-cyclopropylbenzoic acid]
< 0.5 µM | N#Cc1ccc(-c2ccccn2)c(NS(=O)(=O)c2cc(C(=O)O)ccc2C2CCC2)c1 [Example 168, 3-(N-(5-cyano-2-(pyridin-2-yl)phenyl)sulfamoyl)-4-cyclobutylbenzoic acid]
< 0.5 µM | N#Cc1ccc(-c2ncccn2)c(NS(=O)(=O)c2cc(C(=O)O)ccc2C2CC2)c1 [Example 169, 3-(N-(5-cyano-2-(pyrimidin-2-yl)phenyl)sulfamoyl)-4-cyclopropylbenzoic acid]
< 0.5 µM | N#Cc1ccc(-c2ccsn2)c(NS(=O)(=O)c2cc(C(=O)O)ccc2C2CC2)c1 [Example 170, 3-(N-(5-cyano-2-(isothiazol-3-yl)phenyl)sulfamoyl)-4-cyclopropylbenzoic acid]
< 0.5 µM | CS(=O)(=O)c1cc(NS(=O)(=O)c2cc(C(=O)O)ccc2C2CC2)c(-c2ccccn2)cc1F [Example 172, 4-cyclopropyl-3-(N-(4-fluoro-5-(methylsulfonyl)-2-(pyridin-2-yl)phenyl)sulfamoyl)benzoic acid]
